Ki data for 57 molecules are collected here from patent publication US20030229066A1, “Novel heterocyclic urea derivatives and their use as dopamine D3 receptor ligands” (priority 2001, published 2003).

The Ki is the equilibrium dissociation constant of an inhibitor or competing ligand from its target. Low readings indicate tighter binding, high ones weaker binding.

T1 sequence (P35462 whole entry): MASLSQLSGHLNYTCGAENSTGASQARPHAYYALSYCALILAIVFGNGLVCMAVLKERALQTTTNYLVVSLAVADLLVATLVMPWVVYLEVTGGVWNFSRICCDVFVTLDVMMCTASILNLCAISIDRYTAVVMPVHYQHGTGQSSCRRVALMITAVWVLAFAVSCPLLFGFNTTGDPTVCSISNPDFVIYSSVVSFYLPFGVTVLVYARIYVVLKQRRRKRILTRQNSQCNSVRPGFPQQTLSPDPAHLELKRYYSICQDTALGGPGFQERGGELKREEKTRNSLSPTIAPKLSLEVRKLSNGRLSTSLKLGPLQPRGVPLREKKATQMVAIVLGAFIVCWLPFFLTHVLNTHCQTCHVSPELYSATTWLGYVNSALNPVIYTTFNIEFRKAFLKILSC

The assay concerns the target T1, cloned human dopamine D3 receptors (Homo sapiens, UniProt P35462).
T1 construct: expressed in transfected cells
Nature of the assay: [N-Methyl-3H]Spiroperidol binding to cloned human dopamine D3 receptors. The text has this: [N-Methyl-^3H]Spiroperidol Binding to Cloned Human Dopamine D3 Receptors
This assay measures the in vitro activity of compounds on cloned human dopamine (D3) receptors and predicts the direct dopamine-blocking properties of putative neuropsychiatric agents at human dopamine D3 receptors.
The D3 gene was isolated from a human striatal cDNA library (Stratagene). The gene was sequenced and sub-cloned into the expression vector RC/RSV (Invitrogen). CHO (Chinese Hamster Ovary) cells were stably transfected with 10 μg of the D3/RSV plasmid using the DOTAP method from Boehringer Mannheim and 72 clones that were G418 resistant were isolated. Using mRNA and binding displacement data a single high expressing clone was identified. This clone was then grown in large batches for the purpose of developing a 96 well format assay.
The cells are harvested into 250 ml centrifuge tubes with 100 volumes of cold phosphate buffered saline (PBS) and spun down (1200×G for 10 min at 4° C.). The medium is removed and 100 ml PBS are added to each centrifuge tube, cells are resuspened and spun down again. The PBS is removed and the final pellet is homogenized in an appropriate volume of 10% DMSO with a polytron on ice at a medium setting.
For Kj determinations: [^3H]NMSP is made up to a concentration of 2.7 nM in buffer 2b, such that when 150 μl is added to each tube a final concentration of 0.4 nM is attained in the 1 ml assay. Samples of total CPM added are taken for each experiment to calculate the total ligand concentration.
5. S(-)-Eticlopride is obtained from Research Biochemicals International (RBI catalog number E-101). A refrigerated stock (good for up to a month) solution of S(-)-eticlopride is made at a concentration of 30 μM in buffer 2b. One hundred microliters are added to 3 wells for the determination of nonspecific binding (this yields a final concentration of 3 μM in the 1 ml assay).
For most assays, a 100 μM stock solution of the test compound is made up in a suitable solvent (usually <0.1% acetic acid) and serially diluted with buffer 2b, such that when 100 μl of drug is combined with the total 1 ml assay, final concentrations ranging from 10^−5-10^−8 M are attained. Characteristically eight concentrations are studied for each assay; however, higher or lower concentrations may be used, depending on the potency of the drug.
The 96-Well Packard Unifilters GF/B are incubated for >1 h at 25° C. in 0.1% polyethylamine (from 3,b). The cold tissue is added last and mixed on a orbital shaker for a few seconds and is then incubated at 37° C. for 30 min in a shaking water bath. The assay is stopped by rapid filtration through Packard Unifilter plates. The filter membranes are then washed with 15 ml of ice-cold 0.05 M Tris buffer. The filters are then dried (˜15 min under a heat lamp or incubated for 15 min in a 60° C. oven) and a bottom seal is applied. Then 40 μl of Packard Microscint 20 scintillation cocktail is added and a permanent topseal (Type P) is applied and heat sealed. The plates are then shaken on an orbital shaker for 1 h and placed in the Packard Topcount and counted for at least 5 minutes for each point.
Specific binding is defined as the difference between total binding and the binding in the presence of 3 μM S-(-)-eticlopride. Total binding is approximately 10% of the total added ligand. Cheng-Prusoff determination (Kj's) are performed using Prism software using a one-site competition curve analysis where the top and the bottom of the non-linear regression are held constant at 0% and 100% percent inhibition. The percent inhibition at each drug concentration is the mean of duplicate determinations.
With `O=C(NCCCCN1CCCN(c2csc3cc(F)ccc23)CC1)Nc1cc(Cl)cc(Cl)c1` [compound 829202], the Ki was found to be 16.6 nM.

Consider `Cc1ccc(NC(=O)NCCCCN2CCCN(c3csc4cc(F)ccc34)CC2)cc1` [compound 829203], for which the affinity corresponds to a Ki of 5.64 nM.

Consider `CSc1ccc(NC(=O)NCCCCN2CCCN(c3csc4cc(F)ccc34)CC2)cc1` [compound 829204], for which the Ki is 5 nM. The Ki values of the last two molecules are within 1.5-fold of each other.

`CC(=O)c1cccc(NC(=O)NCCCCN2CCCN(c3csc4cc(F)ccc34)CC2)c1` [compound 829206] came in with a Ki of 2.5 nM. This Ki lies about 2-fold lower than the previous one.

In turn, `CC(C)c1ccc(NC(=O)NCCCCN2CCCN(c3csc4cc(F)ccc34)CC2)cc1` [compound 829207] displayed a Ki of 141 nM.

Take `COc1cc(NC(=O)NCCCCN2CCCN(c3csc4cc(F)ccc34)CC2)cc(OC)c1OC` [compound 829210]: the Ki was 1.99 nM. Compared with the last molecule, the Ki is about 71-fold lower.

The molecule `O=C(NCCCCN1CCCN(c2csc3cc(F)ccc23)CC1)Nc1cc(C(F)(F)F)ccc1F` [compound 829211] displayed a Ki of 16 nM.

Molecule `O=C(NCCCCN1CCCN(c2csc3cc(F)ccc23)CC1)Nc1c(F)cccc1C(F)(F)F` [compound 829212] yielded a Ki of 49.9 nM.

As to `O=C(NCCCCN1CCCN(c2csc3cc(F)ccc23)CC1)Nc1ccc(F)c(C(F)(F)F)c1` [compound 829213], the affinity, expressed as Ki, was 181 nM.

Consider `O=C(NCCCCN1CCCN(c2csc3cc(F)ccc23)CC1)Nc1ccc(Cl)cc1` [compound 829214], for which the Ki was found to be 14.1 nM.

The molecule `O=C(NCCCCN1CCCN(c2csc3cc(F)ccc23)CC1)Nc1ccc(F)cc1` [compound 829215] gave a Ki of 6.59 nM.

In turn, `O=C(NCCCCN1CCCN(c2csc3cc(F)ccc23)CC1)Nc1ccccc1F` [compound 829216] had a Ki of 0.178 nM.

In turn, `O=C(NCCCCN1CCCN(c2csc3cc(F)ccc23)CC1)Nc1cccc(F)c1` [compound 829217] displayed a Ki of 3.51 nM.

As to `O=C(NCCCCN1CCCN(c2csc3cc(F)ccc23)CC1)Nc1cccc(C(F)(F)F)c1` [compound 829218], the affinity corresponds to a Ki of 0.165 nM. This Ki lies about 21-fold lower than the previous one.

`COc1ccc(NC(=O)NCCCCN2CCCN(c3csc4cc(F)ccc34)CC2)cc1` [compound 829219] yielded a Ki of 0.0926 nM. This Ki is about 1.8-fold lower than that of the molecule before.

As to `O=C(NCCCCN1CCCN(c2csc3cc(F)ccc23)CC1)Nc1ccc(Br)cc1` [compound 829220], the Ki came out at 18.1 nM. This Ki lies about 200-fold higher than the previous one.

The molecule `COc1cccc(NC(=O)NCCCCN2CCCN(c3csc4cc(F)ccc34)CC2)c1` [compound 829221] registered a Ki of 0.0961 nM. This Ki is about 190-fold lower than that of the molecule before.

In the case of `Cc1cccc(NC(=O)NCCCCN2CCN(c3noc4ccsc34)CC2)c1` [compound 829369], the affinity corresponds to a Ki of 44.2 nM. Compared with the last molecule, the Ki is about 460-fold higher.

In the case of `O=C(NCCCCN1CCN(c2noc3ccsc23)CC1)Nc1cccc(Cl)c1` [compound 829370], the inhibition constant Ki came to 4.91 nM.

Molecule `O=C(NCCCCN1CCN(c2noc3ccsc23)CC1)Nc1ccc(F)cc1F` [compound 829371] displayed a Ki of 55.2 nM.

For `O=C(NCCCCN1CCN(c2noc3ccsc23)CC1)Nc1ccc(C(F)(F)F)cc1` [compound 829372], the affinity corresponds to a Ki of 31.9 nM.

Molecule `O=C(NCCCCN1CCN(c2noc3ccsc23)CC1)Nc1cccc(Br)c1` [compound 829373] had a Ki of 14.9 nM.

`O=C(NCCCCN1CCN(c2noc3ccsc23)CC1)Nc1ccc(OC(F)(F)F)cc1` [compound 829374] returned a Ki of 103 nM.

Regarding `O=C(NCCCCN1CCN(c2noc3ccsc23)CC1)Nc1cc(C(F)(F)F)cc(C(F)(F)F)c1` [compound 829375], the Ki was 176 nM.

In the case of `O=C(NCCCCN1CCN(c2noc3ccsc23)CC1)Nc1cc(F)ccc1F` [compound 829377], affinity was put at a Ki of 87.9 nM. Compared with the last molecule, the Ki is about 2-fold lower.

In turn, `O=C(NCCCCN1CCN(c2noc3ccsc23)CC1)Nc1cc(Cl)cc(Cl)c1` [compound 829378] showed a Ki of 184 nM.

For `CSc1ccc(NC(=O)NCCCCN2CCN(c3noc4ccsc34)CC2)cc1` [compound 829379], the Ki amounted to 54.9 nM.

Take `Cc1ccc(NC(=O)NCCCCN2CCN(c3noc4ccsc34)CC2)cc1` [compound 829380]: the Ki was found to be 26.9 nM. This Ki lies about 2-fold lower than the previous one.

`CC(=O)c1cccc(NC(=O)NCCCCN2CCN(c3noc4ccsc34)CC2)c1` [compound 829381] yielded a Ki of 46.5 nM.

As to `CCOc1ccc(NC(=O)NCCCCN2CCN(c3noc4ccsc34)CC2)cc1` [compound 829382], the affinity, expressed as Ki, was 42.7 nM.

Take `N#Cc1cccc(NC(=O)NCCCCN2CCN(c3noc4ccsc34)CC2)c1` [compound 829383]: the Ki worked out at 102 nM.

With `COc1cc(NC(=O)NCCCCN2CCN(c3noc4ccsc34)CC2)cc(OC)c1OC` [compound 829384], the Ki came out at 190 nM. Compared with the last molecule, the Ki is about 1.9-fold higher.

Molecule `O=C(NCCCCN1CCN(c2noc3ccsc23)CC1)Nc1cc(C(F)(F)F)ccc1F` [compound 829385] had a Ki of 142 nM.

Molecule `O=C(NCCCCN1CCN(c2noc3ccsc23)CC1)Nc1ccc(F)c(C(F)(F)F)c1` [compound 829387] gave a Ki of 114 nM.

With `O=C(NCCCCN1CCN(c2noc3ccsc23)CC1)Nc1ccc(F)cc1` [compound 829388], the affinity, expressed as Ki, was 44 nM.

`O=C(NCCCCN1CCN(c2noc3ccsc23)CC1)Nc1ccc(Cl)c(Cl)c1` [compound 829389] gave a Ki of 50.5 nM.

With `O=C(NCCCCN1CCN(c2noc3ccsc23)CC1)Nc1ccc(Cl)cc1` [compound 829390], the Ki was determined as 37.5 nM.

Regarding `O=C(NCCCCN1CCN(c2noc3ccsc23)CC1)Nc1ccc(Cl)cc1C(F)(F)F` [compound 829392], affinity was put at a Ki of 487 nM.

For the molecule `O=C(NCCCCN1CCN(c2noc3ccsc23)CC1)Nc1ccccc1F` [compound 829393], the Ki was 190 nM.

On to `O=C(NCCCCN1CCN(c2noc3ccsc23)CC1)Nc1cccc(F)c1` [compound 829394], for which the Ki was 77.1 nM.

Molecule `O=C(NCCCCN1CCN(c2noc3ccsc23)CC1)Nc1cccc(C(F)(F)F)c1` [compound 829395] registered a Ki of 148 nM.

As to `COc1ccc(NC(=O)NCCCCN2CCN(c3noc4ccsc34)CC2)cc1` [compound 829396], the Ki turned out to be 121 nM.

In turn, `O=C(NCCCCN1CCN(c2noc3ccsc23)CC1)Nc1ccc(Br)cc1` [compound 829397] gave a Ki of 86.6 nM.

`COc1cccc(NC(=O)NCCCCN2CCN(c3noc4ccsc34)CC2)c1` [compound 829398] showed a Ki of 44.1 nM.

Consider `CC(C)c1ccc(NC(=O)NCCCCN2CCN(c3noc4ccsc34)CC2)cc1` [compound 829407], for which affinity was put at a Ki of 452 nM.

`O=C(NCCCCN1CCCN(c2noc3ccsc23)CC1)Nc1cccc(Cl)c1` [compound 829409] yielded a Ki of 379 nM.

For `O=C(NCCCCN1CCCN(c2noc3ccsc23)CC1)Nc1ccc(C(F)(F)F)cc1` [compound 829411], the Ki came out at 670 nM.

Take `O=C(NCCCCN1CCCN(c2noc3ccsc23)CC1)Nc1cc(C(F)(F)F)cc(C(F)(F)F)c1` [compound 829414]: the affinity corresponds to a Ki of 546 nM.

`O=C(NCCCCN1CCCN(c2noc3ccsc23)CC1)Nc1cc(C(F)(F)F)ccc1Cl` [compound 829415]: the Ki is 345 nM.

For the molecule `O=C(NCCCCN1CCCN(c2noc3ccsc23)CC1)Nc1ccc(Cl)c(C(F)(F)F)c1` [compound 829416], the affinity, expressed as Ki, was 327 nM. This Ki and that of the molecule before are within 1.5-fold of each other.

For `O=C(NCCCCN1CCCN(c2noc3ccsc23)CC1)Nc1cc(F)ccc1F` [compound 829417], the affinity corresponds to a Ki of 338 nM.

`O=C(NCCCCN1CCCN(c2noc3ccsc23)CC1)Nc1cc(Cl)cc(Cl)c1` [compound 829418] came in with a Ki of 52.9 nM. Compared with the last molecule, the Ki is about 6.4-fold lower.

In the case of `Cc1ccc(NC(=O)NCCCCN2CCCN(c3noc4ccsc34)CC2)cc1` [compound 829419], the affinity, expressed as Ki, was 138 nM.

Turning to `CSc1ccc(NC(=O)NCCCCN2CCCN(c3noc4ccsc34)CC2)cc1` [compound 829420], the affinity, expressed as Ki, was 233 nM.

Molecule `CC(=O)c1cccc(NC(=O)NCCCCN2CCCN(c3noc4ccsc34)CC2)c1` [compound 829421] came in with a Ki of 173 nM. The Ki values of the last two molecules are within 1.5-fold of each other.

`CC(C)c1ccc(NC(=O)NCCCCN2CCCN(c3noc4ccsc34)CC2)cc1` [compound 829422] had a Ki of 466 nM.

Molecule `O=C(NCCCCN1CCCN(c2noc3ccsc23)CC1)Nc1cc(C(F)(F)F)ccc1F` [compound 829425] came in with a Ki of 539 nM.
